Experimental data as given in PubChem BioAssay AID2060490 (Molecular Pharmacology Branch, DTP, NCI, 2025).

System: 885512-296-R-J2-PDC complex spheroid viability
Test: Anticancer human tumor 885512-296-R-J2-PDC patient-derived breast carcinoma cell line growth inhibition [GQUAD]
Details: for IC50: curve of first compound; for viability, T/C: stronger effect = lower value
Method in brief: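 Multi-cell-type spheroids of tumor cells with HUVEC and mesenchymal stem cells, treated with drug combinations. Concentrations descend in half-log steps from near clinical Cmax, or from 10 microM where Cmax is unknown; viability read-out.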

[1] = second compound 0.0316 µM, first compound 0.0316 µM
[2] = second compound 0.0316 µM, first compound 0.1 µM
[3] = second compound 0.0316 µM, first compound 0.316 µM
[4] = second compound 0.0316 µM, first compound 1 µM
[5] = second compound 0.0316 µM, first compound 3.16 µM
[6] = second compound 0.0316 µM, first compound 10 µM
[7] = second compound 0.1 µM, first compound 0.0316 µM
[8] = second compound 0.1 µM, first compound 0.1 µM
[9] = second compound 0.1 µM, first compound 0.316 µM
[10] = second compound 0.1 µM, first compound 1 µM
[11] = second compound 0.1 µM, first compound 3.16 µM
[12] = second compound 0.1 µM, first compound 10 µM
[13] = second compound 0.316 µM, first compound 0.0316 µM
[14] = second compound 0.316 µM, first compound 0.1 µM
[15] = second compound 0.316 µM, first compound 0.316 µM
[16] = second compound 0.316 µM, first compound 1 µM
[17] = second compound 0.316 µM, first compound 3.16 µM
[18] = second compound 0.316 µM, first compound 10 µM
[19] = second compound 1 µM, first compound 0.0316 µM
[20] = second compound 1 µM, first compound 0.1 µM
[21] = second compound 1 µM, first compound 0.316 µM
[22] = second compound 1 µM, first compound 1 µM
[23] = second compound 1 µM, first compound 3.16 µM
[24] = second compound 1 µM, first compound 10 µM
[25] = second compound 3.16 µM, first compound 0.0316 µM
[26] = second compound 3.16 µM, first compound 0.1 µM
[27] = second compound 3.16 µM, first compound 0.316 µM
[28] = second compound 3.16 µM, first compound 1 µM
[29] = second compound 3.16 µM, first compound 3.16 µM
[30] = second compound 3.16 µM, first compound 10 µM
[31] = second compound 10 µM, first compound 0.0316 µM
[32] = second compound 10 µM, first compound 0.1 µM
[33] = second compound 10 µM, first compound 0.316 µM
[34] = second compound 10 µM, first compound 1 µM
[35] = second compound 10 µM, first compound 3.16 µM
[36] = second compound 10 µM, first compound 10 µM
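Note: spheroids exposed to the compounds for one week.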
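Throughout, for viability, T/C: percent of tumor spheroid viability relative to DMSO vehicle control wells.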

Work on C#Cc1c(F)ccc2cc(O)cc(-c3ncc4c(N5CC6CCC(C5)N6)nc(OCC56CCCN5CC(F)C6)nc4c3F)c12 (centres undefined) + CN(C)c1ccc(Nc2c3ccc(NC(=O)CCN4CCCC4)cc3nc3cc(NC(=O)CCN4CCCC4)ccc23)cc1 yielded an IC50 (second compound 0.0316 µM) greater than 10 µM, an IC50 (second compound 0.1 µM) greater than 10 µM and an IC50 (second compound 0.316 µM) greater than 10 µM. It also gave an IC50 (second compound 1 µM) greater than 10 µM, an IC50 (second compound 3.16 µM) of 7.98 µM and an IC50 (second compound 10 µM) of less than 0.0316 µM. For the same compound, the viability, T/C [1] was 108%, the viability, T/C [2] was 95.7% and the viability, T/C [3] was 105%. The viability, T/C [4] was 96.8%, the viability, T/C [5] was 106% and the viability, T/C [6] was 87.6%. The viability, T/C [7] was 110%, the viability, T/C [8] was 86.5% and the viability, T/C [9] was 99.8%. For the same compound, the viability, T/C [10] was 98.4%, the viability, T/C [11] was 89% and the viability, T/C [12] was 85.4%. The viability, T/C [13] was 105%, the viability, T/C [14] was 99.3% and the viability, T/C [15] was 96.6%. The viability, T/C [16] was 89.2%, the viability, T/C [17] was 91.4% and the viability, T/C [18] was 87.5%. The viability, T/C [19] was 88.9%, the viability, T/C [20] was 97.7% and the viability, T/C [21] was 99%. For the same compound, the viability, T/C [22] was 102%, the viability, T/C [23] was 94.5% and the viability, T/C [24] was 104%. For the same compound, the viability, T/C [25] was 95.3%, the viability, T/C [26] was 106% and the viability, T/C [27] was 97.2%. The viability, T/C [28] was 89.4%, the viability, T/C [29] was 86.1% and the viability, T/C [30] was 41.2%. It also gave a viability, T/C [31] of 21.5%, a viability, T/C [32] of 15.8% and a viability, T/C [33] of 18.9%. It also gave a viability, T/C [34] of 13.7%, a viability, T/C [35] of 13.9% and a viability, T/C [36] of 1.6%.
COc1ncnc(C2CC2)c1-c1ncc2cnn(Cc3ccc(-c4nc(C(F)(F)F)cn4C(C)C)cc3)c2n1 + Cc1cnc(CNC(=O)c2c(=O)c3ccc(N4CCCN(C)CC4)nc3n3c2sc2ccccc23)cn1 gave an IC50 (second compound 0.0316 µM) greater than 10 µM, an IC50 (second compound 0.1 µM) greater than 10 µM and an IC50 (second compound 0.316 µM) of less than 0.0316 µM. For the same compound, the IC50 (second compound 1 µM) was less than 0.0316 µM, the IC50 (second compound 3.16 µM) was less than 0.0316 µM and the IC50 (second compound 10 µM) was less than 0.0316 µM. The viability, T/C [1] was 94.7%, the viability, T/C [2] was 76% and the viability, T/C [3] was 76.9%. It also gave a viability, T/C [4] of 78.2%, a viability, T/C [5] of 80.6% and a viability, T/C [6] of 77.7%. For the same compound, the viability, T/C [7] was 62.5%, the viability, T/C [8] was 52.4% and the viability, T/C [9] was 54.4%. The viability, T/C [10] was 51.4%, the viability, T/C [11] was 61.5% and the viability, T/C [12] was 58.8%. The viability, T/C [13] was 22.1%, the viability, T/C [14] was 24.6% and the viability, T/C [15] was 24.9%. For the same compound, the viability, T/C [16] was 29.5%, the viability, T/C [17] was 27.3% and the viability, T/C [18] was 22.5%. For the same compound, the viability, T/C [19] was 27.8%, the viability, T/C [20] was 35.9% and the viability, T/C [21] was 29.4%. The viability, T/C [22] was 20.9%, the viability, T/C [23] was 32% and the viability, T/C [24] was 29.5%. It also gave a viability, T/C [25] of 23.5%, a viability, T/C [26] of 29.2% and a viability, T/C [27] of 26.2%. For the same compound, the viability, T/C [28] was 29.4%, the viability, T/C [29] was 32.7% and the viability, T/C [30] was 29.4%. It also gave a viability, T/C [31] of 0.13%, a viability, T/C [32] of 0.18% and a viability, T/C [33] of 0.34%. The viability, T/C [34] was 0.18%, the viability, T/C [35] was 1.03% and the viability, T/C [36] was 0.25%.
